The structures appear in SMILES notation. pKi: −log10 of the molar value.

One test has as its target WDR5 (Homo sapiens (Human), UniProt P61964). Description: TR-FRET binding assay, displacement of 10mer-Thr-FAM probe from His-tagged WDR5.
Settings: not given
The method, then: The LanthaScreenTM Elite Tb-anti-HIS Antibody from ThermoFisher Scientific was used for this purpose. […] The ratio of the 520 and 495 signals are then utilized to generate a dose-response curve to calculate an IC50 value. […] WDR[…] tag protein is used at 2 nM.
What is called pKi is the Ki on a negative log10 scale, so that one unit is a factor of ten. A higher pKi goes with a low Ki. In the case of `Cc1ccncc1-c1cc(CNC2=NCCN2)cc(C(=O)NC(C2CC2)C2CC2)c1` [Example B93], the negative logarithm of the Ki (pKi) was 9.12. The same measure, in the same setting: to `COc1ccnc(CNC(=O)c2cc(CNC3=NCCN3)cc(-c3cc(OC)ccc3OC)c2)c1` [Example B115] belongs 9.32; to `COc1ccnc(CNC(=O)c2cc(CNC3=NCCN3)cc(-c3cc(Cl)ccc3OC)c2)c1` [Example B116], 9.97; to `Cc1cc(-c2cc(CNC3=NCCN3)cc(C(=O)NCc3ccc(Cl)c(Cl)c3)c2)ccn1` [Example B74], 10.51. Regarding `O=C(NCc1ccc(Cl)c(Cl)c1)c1cc(CNC2=NCCN2)cc(-c2ccc(F)nc2F)n1` [Example C2], the pKi is 9.51. In the case of `Cc1cc(C)cc(CNC(=O)c2cc(CNC3=NCCN3)cc(-c3ccnc(C)c3)c2)c1` [Example B90], the pKi is 9.94. On the same count and under the same terms, to `Cc1cc(-c2cc(CNC3=NCCN3)cc(C(=O)NCc3ccc(Cl)c(Cl)c3)c2)cnc1F` [Example B99] belongs 10.06.

Staying with this test, now noted: Inhibition of WDR5 by TR-FRET assay.
Regarding `Cc1cnc(F)c(-c2cc(CNC3=NCCN3)cc(C(=O)N(C)C)c2)c1` [Example 40, 3-(((4,5-dihydro-1H-imidazol-2-yl)amino)methyl)-5-(2-fluoro-5-methylpyridin-3-yl)-N,N-dimethylbenzamide], the negative logarithm of the Ki (pKi) was 7.19. Same read-out and setting: to `Cc1cc(CNC(=O)c2cc(CNC3=NCCC3)cc(-c3ccc(F)c(CO)c3)c2)ccc1Cl` [Example 65, N-(4-chloro-3-methylbenzyl)-5-(((3,4-dihydro-2H-pyrrol-5-yl)amino)methyl)-4′-fluoro-3′-(hydroxymethyl)-[1,1′-biphenyl]-3-carboxamide] belongs 8.37; to `COc1ccnc(CNC(=O)c2cc(C)c(OC)c(Cn3ccnc3C)c2)c1` [Example 146, 4-Methoxy-N-((4-methoxypyridin-2-yl)methyl)-3-methyl-5-((2-methyl-1H-imidazol-1-yl)methyl)benzamide], 6.30.

On to `Cc1cnc(CNC(=O)c2cc(CNC3=NCCN3)cc(-c3ccc(F)nc3C)n2)cn1` [Example 76, 4-(((4,5-Dihydro-1H-imidazol-2-yl)amino)methyl)-6′-fluoro-2′-methyl-N-((5-methylpyrazin-2-yl)methyl)-[2,3′-bipyridine]-6-carboxamide], for which the negative logarithm of the Ki (pKi) was 7.49. Same read-out and setting: to `COc1ccnc(CNC(=O)c2cc(CNC3=NCCN3)cc(-c3cc(F)cnc3OC)c2)c1` [Example 48, 3-(((4,5-dihydro-1H-imidazol-2-yl)amino)methyl)-5-(5-fluoro-2-methoxypyridin-3-yl)-N-((4-methoxypyridin-2-yl)methyl)benzamide] belongs 9.20; to `COc1cc(F)ccc1-c1cc(Cn2ccnc2C)cc(C(=O)NCc2ccc(Cl)c(Cl)c2)n1` [Example 165, N-(3,4-Dichlorobenzyl)-6-(4-fluoro-2-methoxyphenyl)-4-((2-methyl-1H-imidazol-1-yl)methyl)picolinamide], 7.96.

`COc1ccnc(CNC(=O)c2cc(CNC3=NCCN3)cc(-c3cc(C(C)C)ccc3OC)c2)c1` [Example 45, 5-(((4,5-dihydro-1H-imidazol-2-yl)amino)methyl)-5′-isopropyl-2′-methoxy-N-((4-methoxypyridin-2-yl)methyl)-[1,1′-biphenyl]-3-carboxamide]: the negative logarithm of the Ki (pKi) is 9.00. Molecule `COc1cc(OC)cc(C(C)NC(=O)c2cc(CNC3=NCCN3)cc(-c3cnccc3C)c2)c1` (centres unmarked) [Example 20, 3-(((4,5-dihydro-1H-imidazol-2-yl)amino)methyl)-N-(1-(3,5-dimethoxyphenyl)ethyl)-5-(4-methylpyridin-3-yl)benzamide] gave a pKi of 9.22. For the molecule `COc1ccnc(CNC(=O)c2cc(CNC3=NCCN3)cc(-c3ccc(F)cc3C(F)(F)F)c2)c1` [Example 47, 5-(((4,5-dihydro-1H-imidazol-2-yl)amino)methyl)-4′-fluoro-N-((4-methoxypyridin-2-yl)methyl)-2′-(trifluoromethyl)-[1,1′-biphenyl]-3-carboxamide], the pKi is > 10.00.

`COc1cc(OC)cc(C(C)NC(=O)c2cc(Cn3ccnc3C)cc(-c3cccc(CO)c3)n2)c1` (centres unmarked) [Example 157, N-(1-(3,5-dimethoxyphenyl)ethyl)-6-(3-(hydroxymethyl)phenyl)-4-((2-methyl-1H-imidazol-1-yl)methyl)picolinamide] had a pKi of 7.57. Take `COc1ccnc(CNC(=O)c2cc(CNC3=NCCC3)cc(-c3ccc(F)cc3C(F)(F)F)n2)c1` [Example 94, 4-(((3,4-dihydro-2H-pyrrol-5-yl)amino)methyl)-6-(4-fluoro-2-(trifluoromethyl)phenyl)-N-((4-methoxypyridin-2-yl)methyl)picolinamide]: the negative logarithm of the Ki (pKi) is 8.92. Still for that read-out and setting: for `COc1cc(CN(C)C(=O)c2cc(CNC3=NCCN3)cc(-c3ccc(F)nc3C)c2)cc(OC)c1` [Example 8, 3-(((4,5-Dihydro-1H-imidazol-2-yl)amino)methyl)-N-(3,5-dimethoxybenzyl)-5-(6-fluoro-2-methylpyridin-3-yl)-N-methylbenzamide] the value was 7.92; for `Cc1cccc(Oc2cc(CNC3=NCCN3)cc(C(=O)NCc3ccc(Cl)c(Cl)c3)c2)c1` [Example 32, N-(3,4-Dichlorobenzyl)-3-(((4,5-dihydro-1H-imidazol-2-yl)amino)methyl)-5-(m-tolyloxy)benzamide], 9.04. Same read-out and setting: to `COc1ccc(CNC(=O)c2cc(CNC3=NCCN3)cc(-c3cnccc3C)c2)cc1Cl` [Example 14, N-(3-chloro-4-methoxybenzyl)-3-(((4,5-dihydro-1H-imidazol-2-yl)amino)methyl)-5-(4-methylpyridin-3-yl)benzamide] belongs 9.13; to `COc1cc(CNC(=O)c2cc(CNC3=NCCN3)cc(-c3ccc(F)nc3C)n2)cc(OC)c1` [Example 78, 4-(((4,5-Dihydro-1H-imidazol-2-yl)amino)methyl)-N-(3,5-dimethoxybenzyl)-6′-fluoro-2′-methyl-[2,3′-bipyridine]-6-carboxamide], 9.14; to `Cc1nccn1Cc1cc(C(=O)NCc2ccc(Cl)c(Cl)c2)cc(-c2cccc(CO)c2)c1` [Example 147, N-(3,4-dichlorobenzyl)-3′-(hydroxymethyl)-5-((2-methyl-1H-imidazol-1-yl)methyl)-[1,1′-biphenyl]-3-carboxamide], 9.51. Same read-out and setting: for `COc1ccnc(CNC(=O)c2cc(CNC3=NCCN3)cc(-c3ccc(F)cc3OC)c2)c1` [Example 49, 5-(((4,5-Dihydro-1H-imidazol-2-yl)amino)methyl)-4′-fluoro-2′-methoxy-N-((4-methoxypyridin-2-yl)methyl)-[1,1′-biphenyl]-3-carboxamide] the value was 9.52. As to `Cc1cc(F)ccc1-c1cc(CNC2=NCCC2)cc(C(=O)N[C@@H](C)c2ccc(F)c(C(F)(F)F)c2)n1` [Example 97, (S)-4-(((3,4-dihydro-2H-pyrrol-5-yl)amino)methyl)-6-(4-fluoro-2-methylphenyl)-N-(1-(4-fluoro-3-(trifluoromethyl)phenyl)ethyl)picolinamide], the negative logarithm of the Ki (pKi) was 8.14.

`COc1cc(CNC(=O)c2cc(CNC3=NCCN3)cc(-c3ccnc(C)c3)c2)ccc1Cl` [Example 17, N-(4-chloro-3-methoxybenzyl)-3-(((4,5-dihydro-1H-imidazol-2-yl)amino)methyl)-5-(2-methylpyridin-4-yl)benzamide] had a pKi of 8.49.

As to `COc1cc(CNC(=O)c2cc(CNC3=NCCN3)cc(-c3cnc(F)c(Cl)c3)c2)cc(OC)c1` [Example 35, 3-(5-Chloro-6-fluoropyridin-3-yl)-5-(((4,5-dihydro-1H-imidazol-2-yl)amino)methyl)-N-(3,5-dimethoxybenzyl)benzamide], the pKi is 9.44. Regarding `Cc1cc(-c2cc(CNC3=NCCN3)cc(C(=O)NCc3cc(F)cc(Cl)c3)c2)ccn1` [Example 16, N-(3-chloro-5-fluorobenzyl)-3-(((4,5-dihydro-1H-imidazol-2-yl)amino)methyl)-5-(2-methylpyridin-4-yl)benzamide], the pKi was 9.28. As for `COc1cc(OC)cc(C(C)NC(=O)c2cc(CNC3=NC(=O)CN3C)cc(-c3ccc(F)nc3C)c2)c1` (centres unmarked) [Example 44, N-(1-(3,5-dimethoxyphenyl)ethyl)-3-(6-fluoro-2-methylpyridin-3-yl)-5-(((1-methyl-4-oxo-4,5-dihydro-1H-imidazol-2-yl)amino)methyl)benzamide], the pKi was 7.77. On the same count and under the same terms, for `Cc1cc(-c2cc(CNC3=NCCN3)cc(C(=O)NCc3ccc(Cl)c(Cl)c3)n2)ccn1` [Example 82, N-(3,4-Dichlorobenzyl)-4-(((4,5-dihydro-1H-imidazol-2-yl)amino)methyl)-2′-methyl-[2,4′-bipyridine]-6-carboxamide] the value was 9.34; for `Cc1ccnc(C(NC(=O)c2cc(CNC3=NCCN3)cc(-c3cc(C)cnc3F)c2)C2CC2)c1` (centres unmarked) [Example 39, N-(cyclopropyl(4-methylpyridin-2-yl)methyl)-3-(((4,5-dihydro-1H-imidazol-2-yl)amino)methyl)-5-(2-fluoro-5-methylpyridin-3-yl)benzamide], > 10.00; for `Cc1cc(C)cc(CNC(=O)c2cc(CNC3=NCCN3)cc(-c3ccc(F)nc3C)c2)c1` [Example 6, 3-(((4,5-Dihydro-1H-imidazol-2-yl)amino)methyl)-N-(3,5-dimethylbenzyl)-5-(6-fluoro-2-methylpyridin-3-yl)benzamide], 9.85. With `COc1cc(OC)cc(C(C)NC(=O)c2cc(Cn3ccnc3C)cc(-c3ccc(F)c(C(N)=O)c3)n2)c1` (centres unmarked) [Example 161, 6-(3-Carbamoyl-4-fluorophenyl)-N-(1-(3,5-dimethoxyphenyl)ethyl)-4-((2-methyl-1H-imidazol-1-yl)methyl)picolinamide], the negative-log Ki (pKi) is < 7.48. On the same count and under the same terms, to `COc1cc(CN(C)C(=O)c2cc(Cn3ccnc3)cc(-c3ccc(F)nc3C)c2)cc(OC)c1` [Example 140, 3-((1H-Imidazol-1-yl)methyl)-N-(3,5-dimethoxybenzyl)-5-(6-fluoro-2-methylpyridin-3-yl)-N-methylbenzamide] belongs 7.02.

On to `Cc1cc(CNC(=O)c2cc(CNC3=NCCN3)cc(-c3cnc(F)c(C)c3)c2)ccc1Cl` [Example 31, N-(4-Chloro-3-methylbenzyl)-3-(((4,5-dihydro-1H-imidazol-2-yl)amino)methyl)-5-(6-fluoro-5-methylpyridin-3-yl)benzamide], for which the negative-log Ki (pKi) was > 10.00.

(Values after patent US10807959B2, “WDR5-MLL1 inhibitors and modulators” (Vanderbilt University, priority 2018, dated 2020).)
